Among the data in ChEMBL document CHEMBL5038658, “Structure-Activity Relationship of 3-Methylcytidine-5'-α,β-methylenediphosphates as CD73 Inhibitors” (J Med Chem, 2022) are Ki and inhibition values, retold here.

The structures appear in SMILES notation. The source made the active and inactive calls. The calls are words filed in the database; no cut-off is given here.

Test [1] concerns the target T1, 5'-nucleotidase (Homo sapiens, UniProt P21589). In words: Inhibition of human soluble CD73 assessed as inhibition constant.
For test [2], the target named is T1, 5'-nucleotidase. In words: Inhibition of 5'-Nucleotidase activity in human HN-SCC cells assessed as reduction in tumor CD73 catalytic activity incubated for 45 mins in presence of Pb(NO3)2 by […] based assay. The following applies: dose 50-250 nM. In kind it is cell-based.
The target of test [3] is T1, 5'-nucleotidase. Put plainly: Inhibition of 5'-Nucleotidase activity in human tonsils assessed as reduction in CD73 catalytic activity in tonsils incubated for 45 mins in presence of Pb(NO3)2 by […] based assay. It is filed as tissue-based. The following applies: Tonsil, dose 50-250 nM.
The target of test [4] is T1, 5'-nucleotidase. Put plainly: Inhibition of human soluble CD73 at 0.03 to 50000 nM relative to control. Conditions: dose 0.03-50000 nM.

T1 sequence (P21589 whole entry): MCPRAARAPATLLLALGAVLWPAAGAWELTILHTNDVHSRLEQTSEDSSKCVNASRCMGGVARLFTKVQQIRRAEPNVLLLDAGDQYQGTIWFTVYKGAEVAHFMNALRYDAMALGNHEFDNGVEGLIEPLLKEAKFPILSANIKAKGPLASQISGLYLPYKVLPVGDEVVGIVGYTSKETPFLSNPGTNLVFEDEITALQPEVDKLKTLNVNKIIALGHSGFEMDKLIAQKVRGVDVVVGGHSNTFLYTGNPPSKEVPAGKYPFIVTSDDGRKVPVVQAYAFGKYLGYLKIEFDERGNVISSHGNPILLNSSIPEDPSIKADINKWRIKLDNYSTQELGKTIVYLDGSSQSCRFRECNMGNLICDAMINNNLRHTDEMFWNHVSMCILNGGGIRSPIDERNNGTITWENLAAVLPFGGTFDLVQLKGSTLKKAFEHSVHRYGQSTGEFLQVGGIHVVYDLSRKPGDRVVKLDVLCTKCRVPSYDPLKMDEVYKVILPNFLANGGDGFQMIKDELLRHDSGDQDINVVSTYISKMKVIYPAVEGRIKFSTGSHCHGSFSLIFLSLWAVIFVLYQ

One may read the Ki as a measure of affinity in units of concentration, obtained from inhibition or displacement. For the molecule `O=c1[nH]c(=O)n([C@@H]2O[C@H](COP(=O)(O)CP(=O)(O)O)[C@@H](O)[C@H]2O)cc1F`, the Ki in test [1] was 2540 nM.

Consider `Cn1c(=O)n([C@@H]2O[C@H](COP(=O)(O)CP(=O)(O)O)[C@@H](O)[C@H]2O)cc/c1=N/OCc1ccc(C(F)(F)F)cc1`, for which the Ki in test [1] came to 1.08 nM.

In the case of `Cn1c(=O)n([C@@H]2O[C@H](COP(=O)(O)CP(=O)(O)O)[C@@H](O)[C@H]2O)cc/c1=N/OCc1ccc(C(=O)O)cc1`, the Ki in test [1] is 14.1 nM.

Take `Cn1c(=O)n([C@@H]2O[C@H](COP(=O)(O)CP(=O)(O)O)[C@@H](O)[C@H]2O)cc/c1=N/OCc1cccc(C(F)(F)F)c1`: the Ki in test [1] was 1.27 nM.

Usually inhibition stands for the change of the read-out against control, counted positive when it falls. In the case of `Cn1c(=O)n([C@@H]2O[C@H](COP(=O)(O)CP(=O)(O)O)[C@@H](O)[C@H]2O)cc/c1=N/OCc1ccc(S(F)(F)(F)(F)F)cc1`, in test [1], the Ki turned out to be 0.511 nM. Further, the inhibition entry in test [2] and in test [3] was “Dose-Dependent Effect” each time.

Turning to `Cn1c(=O)n([C@H]2[C@H](O)[C@H](O)[C@]3(COP(=O)(O)CP(=O)(O)O)C[C@H]23)cc/c1=N/OCc1ccc(Cl)cc1`, in test [1], the inhibition constant Ki stood at 59.2 nM.

With `Cn1c(=O)n([C@@H]2O[C@H](COP(=O)(O)CP(=O)(O)O)[C@@H](O)[C@H]2O)cc/c1=N/OCc1ccc(I)cc1`, in test [1], the Ki is 0.436 nM. Further, the inhibition entry in test [2] and in test [3] was “Dose-Dependent Effect” each time.

With `Cn1c(=O)n([C@@H]2O[C@H](COP(=O)(O)CP(=O)(O)O)[C@@H](O)[C@H]2O)cc/c1=N/OCc1ccc(C(N)=O)cc1`, the inhibition constant Ki in test [1] was found to be 1.76 nM.

Turning to `O=c1ccn([C@H]2[C@H](O)[C@H](O)[C@]3(COP(=O)(O)CP(=O)(O)O)C[C@H]23)c(=O)[nH]1`, the inhibitory constant (Ki) in test [1] was more than 50000 nM. The same molecule had an inhibition in test [4] of 28%.

With `Cn1c(=O)n([C@@H]2O[C@H](COP(=O)(O)CP(=O)(O)O)[C@@H](O)[C@H]2O)cc/c1=N/OCc1ccc(Br)cc1`, the Ki in test [1] is 0.441 nM.

On to `Cn1c(=O)n([C@@H]2O[C@H](COP(=O)(O)CP(=O)(O)O)[C@@H](O)[C@H]2O)cc/c1=N/OCc1ccc(F)cc1`, for which the Ki in test [1] was determined as 1.14 nM.

As for `CCOC(=O)CCNC(=O)c1ccc(CO/N=c2/ccn([C@@H]3O[C@H](COP(=O)(O)CP(=O)(O)O)[C@@H](O)[C@H]3O)c(=O)n2C)cc1`, in test [1], the inhibition constant Ki was found to be 2.51 nM.

As for `Cn1c(=O)n([C@@H]2O[C@H](COP(=O)(O)CP(=O)(O)O)[C@@H](O)[C@H]2O)cc/c1=N/OCc1ccccc1Cl`, the inhibition constant Ki in test [1] amounted to 1.63 nM.

For `CCc1ccc(CO/N=c2/ccn([C@@H]3O[C@H](COP(=O)(O)CP(=O)(O)O)[C@@H](O)[C@H]3O)c(=O)n2C)cc1`, the Ki in test [1] was 3.5 nM.

As to `COC(=O)c1ccc(CO/N=c2/ccn([C@@H]3O[C@H](COP(=O)(O)CP(=O)(O)O)[C@@H](O)[C@H]3O)c(=O)n2C)cc1`, the inhibition constant Ki in test [1] was 0.848 nM.

As for `Cn1c(=O)n([C@@H]2O[C@H](COP(=O)(O)CP(=O)(O)O)[C@@H](O)[C@H]2O)cc/c1=N/OCc1cccc(Cl)c1`, in test [1], the inhibition constant Ki amounted to 1.58 nM.

Take `Cn1c(=O)n([C@@H]2O[C@H](COP(=O)(O)CP(=O)(O)O)[C@@H](O)[C@H]2O)cc/c1=N/OCc1ccc(C(=O)NCCC(=O)O)cc1`: in test [1], the inhibition constant (Ki) was 2.61 nM.

Regarding `Cn1c(=O)n([C@@H]2O[C@H](COP(=O)(O)CP(=O)(O)O)[C@@H](O)[C@H]2O)cc/c1=N/OCc1ccc(C(=O)NCCN)cc1`, the Ki in test [1] worked out at 0.626 nM.

With `Cc1ccc(CO/N=c2/ccn([C@@H]3O[C@H](COP(=O)(O)CP(=O)(O)O)[C@@H](O)[C@H]3O)c(=O)n2C)cc1`, the Ki in test [1] was 0.894 nM.

As to `Cn1c(=O)n([C@@H]2O[C@H](COP(=O)(O)CP(=O)(O)O)[C@@H](O)[C@H]2O)cc/c1=N/OCc1ccc(C(=O)NCCCCN)cc1`, the inhibition constant (Ki) in test [1] was 1.78 nM.

As to `Nc1ncnc2c1ncn2[C@@H]1O[C@H](COP(=O)(O)CP(=O)(O)O)[C@@H](O)[C@H]1O`, the inhibition entry in test [2] and in test [3] was “inactive” in each case.

As for `Cn1c(=O)n([C@@H]2O[C@H](COP(=O)(O)CP(=O)(O)O)[C@@H](O)[C@H]2O)cc/c1=N/C(=O)NCc1ccccc1`, in test [1], the Ki amounted to 71.5 nM.
